According to patent US20050239656A1, “Pyridine compounds or salts thereof and herbicides containing the same” (priority 2002, published 2005):

Tests used:
[1] = system: corn; test: Test Example 2: soil surface treatment, upland pot test; assay type: in vivo, Zea mays L.; details: active ingredient 500 g/ha
Method in brief: (§1)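 Visual growth-control ratings (0 = untreated, 100 = complete kill) were taken 20–28 days after soil surface application. The spray was made one day post-sowing in upland soil pots, using formulated compound diluted with water at 1,500 L/ha at a set active ingredient rate.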

[2] = system: japanese bulrush; test: Test Example 3: paddy pot test, application under submerged conditions; assay type: in vivo, Scirpus juncoides; details: submerged application at 0.5 leaf stage, visually observed 14 days after application, 0 = non-treated, 100 = complete kill
Method in brief: (§2)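 Visual rating of growth control (0% equals untreated, 100% complete kill) made 14 days after treatment. Compound, formulated as wettable powder or emulsifiable concentrate and diluted in water, was pipetted under submerged conditions at predetermined active-ingredient doses once weeds reached 0.5-leaf (barnyardgrass, bulrush) or primary-leaf (wapato, from tubers) stage. Pots of greenhouse paddy soil held 3–4 cm flooding.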

[3] = system: barnyardgrass; test: as above; assay type: in vivo, Echinochloa crus-galli L.; details: submerged application at 0.5 leaf stage, visually observed 14 days after application, 0 = non-treated, 100 = complete kill
Method in brief: as §2

[4] = system: japanese ribbon wapato; test: as above; assay type: in vivo, Sagittaria pygniaea; details: submerged application at primary leaf stage, visually observed 14 days after application, 0 = non-treated, 100 = complete kill
Method in brief: as §2

[5] = system: soybean; test: Test Example 2: soil surface treatment, upland pot test; assay type: in vivo, Glycine max Merr.; details: active ingredient 500 g/ha
Method in brief: as §1

[6] = system: velvetleaf; test: as above; assay type: in vivo, Abutilon theophrasti MEDIC.; details: active ingredient 500 g/ha
Method in brief: as §1

[7] = system: green foxtail; test: as above; assay type: in vivo, Setaria viridis L.; details: active ingredient 500 g/ha
Method in brief: as §1

[8] = system: prickly sida; test: as above; assay type: in vivo, Sida spinosa L.; details: active ingredient 500 g/ha
Method in brief: as §1

[9] = system: barnyardgrass; test: as above; assay type: in vivo, Echinochloa crus-galli L.; details: active ingredient 500 g/ha
Method in brief: as §1

[10] = system: rice; test: as above; assay type: in vivo, Oryza sativa L.; details: active ingredient 500 g/ha
Method in brief: as §1

[11] = system: crabgrass; test: as above; assay type: in vivo, Digitaria sanguinalis L.; details: active ingredient 500 g/ha
Method in brief: as §1

[12] = system: redroot pigweed; test: as above; assay type: in vivo, Amaranthus retroflexus L.; details: active ingredient 500 g/ha
Method in brief: as §1

[13] = system: rice (var. Nihonbare); test: Test Example 3: paddy pot test, transplanted rice; assay type: in vivo, Oryza sativa L.; details: applied 4th day after transplantation, visually observed 21st day after application, 0 = non-treated, 100 = complete kill
Method in brief: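 Visual crop-injury rating (0 = as untreated, 100 = complete kill, %) taken 21 days post-application. Treatment: formulated compound, water-diluted, pipetted into 3–4 cm flood water at a preset active-ingredient dose, 4 days after transplanting 2-leaf Nihonbare rice 3 cm deep in puddled paddy soil.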

[14] = observed day 21, 0 = non-treated, 100 = complete kill

Row | SMILES | Growth controlling degree (%) Corn ([1]; observed 20th to 28th day) [%] | Growth controlling degree (%) Japanese bulrush ([2]; active ingredient 250 g/ha) [%] | Growth controlling degree (%) Barnyardgrass ([3]; active ingredient 250 g/ha) [%] | Growth controlling degree (%) Japanese ribbon wapato ([4]; active ingredient 250 g/ha) [%] | Growth controlling degree (%) Soyabean ([5]; observed 20th to 28th day) [%] | Growth controlling degree (%) Velvetleaf ([6]; observed 20th to 28th day) [%] | Growth controlling degree (%) Green foxtail ([7]; observed 20th to 28th day) [%] | Growth controlling degree (%) Prickly sida ([8]; observed 20th to 28th day) [%] | Growth controlling degree (%) Barnyardgrass ([9]; observed 20th to 28th day) [%] | Growth controlling degree (%) Rice ([10]; observed 20th to 28th day) [%] | Growth controlling degree (%) Crabgrass ([11]; observed 20th to 28th day) [%] | Growth controlling degree (%) Redroot pigweed ([12]; observed 20th to 28th day) [%] | Growth controlling degree (%) Rice ([13]; active ingredient 250 g/ha) [%] | further results
1 | CCN(C(=O)Cc1ccc(Cl)cc1)C(c1cnccc1C(F)(F)F)C(C)C (stereo not drawn) [Compound I-100] | 30 | 95 | 100 | 30 | 0 | 10 | 100 | 70 | 98 | 30 | 98 | 10 | 10 | 
2 | CC(C)C(c1cnccc1C(F)(F)F)N(C)C(=O)C=Cc1ccc(F)cc1 (stereo not drawn) [I-172] | 10 | 98 | 100 | 95 | 0 | 10 | 95 | 80 | 40 | 20 | 98 | 60 | 0 | 
3 | COc1ccc(OCC(=O)N(C)C(c2cnccc2C(F)(F)F)C(C)C)cc1 (stereo not drawn) [I-244] | 30 | 95 | 100 | 50 | 0 | 0 | 80 | 60 | 50 | 20 | 80 | 60 | 0 | 
4 | CC(C)C(c1cnccc1Cl)N(C)C(=O)Cc1ccc(Cl)cc1 (stereo not drawn) [I-82] | 10 | 98 | 98 | 0 | 0 | 0 | 70 | 0 | 80 | 30 | 90 | 60 | 30 | 
5 | CCN(C(=O)Cc1ccc(C(F)(F)F)cc1)C(c1cnccc1C(F)(F)F)C(C)C (stereo not drawn) [Compound I-79] | 10 | 70 | 100 | 40 | 10 | 80 | 100 | 100 | 100 | 10 | 100 | 80 | 20 | 
6 | Cc1ccc(OCC(=O)N(C)C(c2cnccc2C(F)(F)F)C(C)C)cc1 (stereo not drawn) [Compound I-239] | 10 | 98 | 98 | 70 | 10 | 30 | 90 | 80 | 60 | 0 | 95 | 70 | 0 | 
7 | Cc1ccc(CC(=O)N(C)C(c2cnccc2C(F)(F)F)C(C)C)c(F)c1 (racemic) [I-109] | 10 |  |  |  | 0 | 0 | 70 | 0 | 0 | 20 | 98 | 70 |  | Growth controlling degree (%) Japanese bulrush ([2]; active ingredient 125 g/ha): 90%; Growth controlling degree (%) Barnyardgrass ([3]; active ingredient 125 g/ha): 95%; Growth controlling degree (%) Japanese ribbon wapato ([4]; active ingredient 125 g/ha): 60%; Growth controlling degree (%) Rice ([13]; active ingredient 125 g/ha): 0%
8 | CC(C)C(c1cnccc1C(F)(F)F)N(C)C(=O)Cc1cc(C(F)(F)F)ccc1F (stereo not drawn) [Compound I-96] | 20 | 100 | 100 | 0 | 20 | 50 | 100 | 70 | 60 | 10 | 85 | 80 | 30 | 
9 | CC(C)C(c1cnccc1C(F)(F)F)N(C)C(=O)CSc1ccccc1 (stereo not drawn) [I-256] |  | 90 | 100 | 20 |  |  |  |  |  |  |  |  | 0 | Growth controlling degree (%) Corn [1, 14]: 10%; Growth controlling degree (%) Soyabean [5, 14]: 0%; Growth controlling degree (%) Velvetleaf [6, 14]: 0%; Growth controlling degree (%) Green foxtail [7, 14]: 100%; Growth controlling degree (%) Prickly sida [8, 14]: 10%; Growth controlling degree (%) Barnyardgrass [9, 14]: 70%; Growth controlling degree (%) Rice [10, 14]: 0%; Growth controlling degree (%) Crabgrass [11, 14]: 98%; Growth controlling degree (%) Redroot pigweed [12, 14]: 80%
10 | CC(C)C(c1cnccc1C(F)(F)F)N(C)C(=O)N(C)c1ccccc1 (stereo not drawn) [I-232] | 30 |  |  |  | 0 | 70 | 100 | 95 | 100 | 30 | 100 | 80 |  | Growth controlling degree (%) Japanese bulrush ([2]; active ingredient 500 g/ha): 90%; Growth controlling degree (%) Barnyardgrass ([3]; active ingredient 500 g/ha): 100%; Growth controlling degree (%) Japanese ribbon wapato ([4]; active ingredient 500 g/ha): 70%; Growth controlling degree (%) Rice ([13]; active ingredient 500 g/ha): 60%
11 | CCc1ccc(CC(=O)N(C)C(c2cnccc2C(F)(F)F)C(C)C)cc1 (stereo not drawn) [I-95] | 10 | 98 | 100 | 20 | 30 | 30 | 90 | 80 | 95 | 10 | 98 | 60 | 0 | 
12 | CC(C)C(c1cnccc1C(F)(F)F)N(C)C(=O)CCc1ccccc1 (stereo not drawn) [I-169] | 40 | 50 | 100 | 0 | 30 | 20 | 100 | 90 | 100 | 40 | 98 | 70 | 10 | 
